Assay [1] addresses T1, HSD17B13 enzyme (Homo sapiens (Human), UniProt Q7Z5P4). The assay is described as follows: Estrone detection assay (LC/MS, conversion of estradiol to estrone) for HSD17B13 activity. It is filed as biochemical. Conditions: substrate 4 µM estradiol, 6 mM NAD+, 30 nM enzyme. Here is the method:
The liquid chromatography/mass spectrometry (LC/MS) estrone detection assay monitors the conversion of estradiol to estrone by HSD17B13. This assay was undertaken in a 96wp format (Eppendorf deep well Plate 96/500) in an 80 µl reaction volume containing: 4 µM of Estradiol (E2; Cayman; #10006315), 6 mM NAD^+ (Sigma; #N0623) and 30 nM HSD17B13 enzyme (in-house; E. coli expressed His-tagged, purified, soluble protein) in a reaction containing 1 M potassium phosphate buffer pH 7.4, with 0.5% vehicle (DMSO). Reactions were incubated for 2 hours at 26.5° C., and estradiol (E2) conversion to estrone (E1) was quantitated by LC-MS/MS based analyte detection for both E2 and E1 using LCMS grade reagents.
Reactions were terminated by the addition of two volumes of acetonitrile (MeCN; LCMS grade; CAS# 75/05/8) containing deuterated (D4)-E1 used as internal standard (Clear Synth; #CS-T-54273; 500 ng/mL final concentration). Samples were applied to pre-prepared Bond Elut-C18 extraction cartridges (3 mL; Agilent; #12102028), washed and eluted in MeCN. Eluates were dried under nitrogen and re-suspended in 60% methanol (LCMS grade methanol; CAS# 67/56/1) before submission for analysis. Aqueous linearity for E2 and E1 were included for quantification.
Analysis of samples was undertaken on a XBridge BEH C18 column (Waters; #186003033) using 0.1% Diethyl Amine in MeCN (mobile phase A; DEA CAS# 109-89-7) and 0.1% Diethyl Amine in milli-Q water (mobile phase B) in a 3 min gradient allowing 25%B. Analytes were detected in negative mode using MRM analysis, with E2 having a RT of 1.85 min and E1 having a RT of 2 min. Activity of the enzyme, in the absence of NAD^+, was used to evaluate specificity of conversion. Enzyme activity in the presence of test samples was expressed as a percentage of the uninhibited enzyme activity, and plotted versus inhibitor concentration. Non-linear regression was performed using a four-parameter logistic model and GraphPad Prism software (GraphPad Software, La Jolla, CA). All assessments were undertaken in duplicate evaluations and pooled during extraction process and subsequently injected as duplicates for LC-MS/MS analysis.

For assay [2], the target named is T1, HSD17B13 enzyme. The assay is described as follows: NADH detection assay (fluorescence based LTB3 assay) for HSD17B13 activity. The format is biochemical. Conditions: substrate 25 µM LTB3, 3 mM NAD+, 125 nM enzyme. Here is the method:
The fluorescence based Leukotriene B3 (LTB3) assay monitors the fluorescence of NADH, which is generated from NAD+ during the dehydrogenation of the substrate LTB3. The reactions were performed in a 384-well plates (Greiner; #655076) in a 20 µl reaction volume containing the following reagents (final concentrations): 25 µM LTB3 (Cayman; #20109); 3 mM NAD^+ (Sigma; #N0623); 125 nM HSD17B13 enzyme (in-house; E. coli expressed His-tagged, purified, soluble protein); 1 M potassium phosphate buffer, pH 7.4; and 1% DMSO. Reactions were initiated by co-addition of NAD+ and enzyme, and monitored for 1 hour at 26.5° C. Generation of NADH was measured as the fluorescence signal (Excitation at 340 nm and Emission at 445 nm) at 1 hour minus the baseline fluorescence at t=0. Fluorescence signals in the absence of LTB3 (negative control values), were subtracted from all values so that the results reflected substrate-dependent production of NADH. NADH standards were included to allow the conversion of relative fluorescence units into rates of enzyme activity. Enzyme activity in the presence of test compounds was expressed as a percentage of the uninhibited enzyme activity, and plotted versus inhibitor concentration. Non-linear regression was performed using a four-parameter logistic model and Microsoft Excel Solver software Ten concentrations of inhibitor were tested in duplicate (in the range of 30 µM - 2.5 nM), and two independent concentration response assays were performed.

T1 sequence (Q7Z5P4 20-300): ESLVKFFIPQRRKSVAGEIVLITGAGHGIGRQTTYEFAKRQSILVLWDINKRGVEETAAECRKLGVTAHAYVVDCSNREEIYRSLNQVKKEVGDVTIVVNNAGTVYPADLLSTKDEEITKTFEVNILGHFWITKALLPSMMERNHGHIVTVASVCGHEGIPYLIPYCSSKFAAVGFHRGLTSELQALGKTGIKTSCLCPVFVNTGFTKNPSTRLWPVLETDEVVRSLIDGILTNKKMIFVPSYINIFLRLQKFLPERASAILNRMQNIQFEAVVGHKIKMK

`COc1ccccc1CCn1cnc2cccc(NC(=O)c3ccc(O)c(C(C)(C)C)c3)c2c1=O` [Example 31, 3-(tert-butyl)-4-hydroxy-N-(3-(2-methoxyphenethyl)-4-oxo-3,4-dihydroquinazolin-5-yl)benzamide]: the IC50 at HSD17B13 enzyme [1] and at HSD17B13 enzyme [2] was over 10000 nM each time.

`CC(C)(C)CCn1cnc2cccc(NC(=O)c3ccc(S(=O)(=O)NC(=O)c4ccccc4)c(Cl)c3)c2c1=O` [Example 18, 4-(N-benzoylsulfamoyl)-3-chloro-N-(3-(3,3-dimethylbutyl)-4-oxo-3,4-dihydroquinazolin-5-yl)benzamide]: the IC50 (usually the concentration that gives 50% inhibition) at HSD17B13 enzyme [1] was 1000 to 10000 nM; against HSD17B13 enzyme [2] it was over 10000 nM. As to `COc1ccccc1CCn1cnc2cccc(NC(=O)c3cc(Cl)c4[nH]c(=O)[nH]c4c3)c2c1=O` [Example 19, 7-chloro-N-(3-(2-methoxyphenethyl)-4-oxo-3,4-dihydroquinazolin-5-yl)-2-oxo-2,3-dihydro-1H-benzo[d]imidazole-5-carboxamide], the IC50 was over 10000 nM against HSD17B13 enzyme [1] and 1000 to 5000 nM against HSD17B13 enzyme [2]. Compound `O=C(Nc1cccc2ncn(Cc3nncs3)c(=O)c12)c1cc(Cl)c(O)c(C(F)(F)F)c1` [Example 36, N-(3-((1,3,4-thiadiazol-2-yl)methyl)-4-oxo-3,4-dihydroquinazolin-5-yl)-3-chloro-4-hydroxy-5-(trifluoromethyl)benzamide] displayed an IC50 on HSD17B13 enzyme [1] of 1000 to 10000 nM. The same measure, in the same setting: the same measure for `O=C(Nc1cccc2ncn(Cc3cccc(F)c3)c(=O)c12)c1cc(C(F)(F)F)c(O)c(C(F)(F)F)n1` [Example 40, N-(3-(3-fluorobenzyl)-4-oxo-3,4-dihydroquinazolin-5-yl)-5-hydroxy-4,6-bis(trifluoromethyl)picolinamide]: 100 to 1000 nM.

With `O=C(Nc1cccc2ncn(Cc3ccccc3C(F)(F)F)c(=O)c12)c1cc(Cl)c(O)c(C(F)(F)F)n1` [Example 55, 4-chloro-5-hydroxy-N-(4-oxo-3-(2-(trifluoromethyl)benzyl)-3,4-dihydroquinazolin-5-yl)-6-(trifluoromethyl)picolinamide], on HSD17B13 enzyme [1], the IC50 fell in the range of 100 to 1000 nM. The same measure, in the same setting: then `C[C@@H](c1cccc(F)c1)n1cnc2cccc(NC(=O)c3cc(Cl)c(O)c(C#N)c3)c2c1=O` [Example 38, (S)-3-chloro-5-cyano-N-(3-(1-(3-fluorophenyl)ethyl)-4-oxo-3,4-dihydroquinazolin-5-yl)-4-hydroxybenzamide], with 100 to 1000 nM; and `O=C(Nc1cccc2ncn(Cc3cccc(F)c3)c(=O)c12)c1cc(Cl)c(O)c(=O)[nH]1` [Example 65, 4-chloro-N-(3-(3-fluorobenzyl)-4-oxo-3,4-dihydroquinazolin-5-yl)-5-hydroxy-6-oxo-1,6-dihydropyridine-2-carboxamide], with over 10000 nM; and `CC(C)(C)CCn1cnc2cccc(NC(=O)c3cnc(O)c(Cl)c3)c2c1=O` [Example 12, 5-chloro-N-(3-(3,3-dimethylbutyl)-4-oxo-3,4-dihydroquinazolin-5-yl)-6-hydroxynicotinamide], with 1000 to 10000 nM. Still for that read-out and setting: the same measure for `NC(=O)c1cc(C(=O)Nc2cccc3ncn(Cc4cccc(C(F)(F)F)c4)c(=O)c23)cc(F)c1O` [Example 54, 5-fluoro-4-hydroxy-N1-(4-oxo-3-(3-(trifluoromethyl)benzyl)-3,4-dihydroquinazolin-5-yl)isophthalamide]: 1000 to 10000 nM.

In the case of `CS(=O)(=O)c1ccccc1Cn1cnc2cccc(NC(=O)c3cc(F)c(O)c(C#N)c3)c2c1=O` [Example 62, 3-cyano-5-fluoro-4-hydroxy-N-(3-(2-(methylsulfonyl)benzyl)-4-oxo-3,4-dihydroquinazolin-5-yl)benzamide], the IC50 on HSD17B13 enzyme [1] fell in the range of 100 to 1000 nM. As to `O=C(Nc1cccc2ncn(Cc3ccc(C(F)(F)F)cc3)c(=O)c12)c1cc(Cl)c(O)c(C(F)(F)F)n1` [Example 51, 4-chloro-5-hydroxy-N-(4-oxo-3-(4-(trifluoromethyl)benzyl)-3,4-dihydroquinazolin-5-yl)-6-(trifluoromethyl)picolinamide], the IC50 at HSD17B13 enzyme [1] is 1000 to 10000 nM.

The compound `CC(C)(C)CCn1cnc2cccc(NC(=O)c3ccc(-c4nnn[nH]4)c(Cl)c3)c2c1=O` [Example 13, 3-chloro-N-(3-(3,3-dimethylbutyl)-4-oxo-3,4-dihydroquinazolin-5-yl)-4-(1H-tetrazol-5-yl)benzamide] came in with an IC50 against HSD17B13 enzyme [1] of 1000 to 10000 nM. The compound `O=C(Nc1cccc2ncn(Cc3ccccc3OC(F)(F)F)c(=O)c12)c1cc(F)c(O)c(C(F)(F)F)c1` [Example 64, 3-fluoro-4-hydroxy-N-(4-oxo-3-(2-(trifluoromethoxy)benzyl)-3,4-dihydroquinazolin-5-yl)-5-(trifluoromethyl)benzamide] returned an IC50 against HSD17B13 enzyme [1] of at most 100 nM.

As for `O=C(Nc1cccc2ncn(Cc3ccccc3C(F)(F)F)c(=O)c12)c1cc(Cl)c(O)c(C(F)(F)F)c1` [Example 39, 3-chloro-4-hydroxy-N-(4-oxo-3-(2-(trifluoromethyl)benzyl)-3,4-dihydroquinazolin-5-yl)-5-(trifluoromethyl)benzamide], the IC50 against HSD17B13 enzyme [1] was 100 to 1000 nM. Same read-out and setting: the same measure for `N#Cc1cc(C(=O)Nc2cccc3ncn(Cc4cccc(C(F)(F)F)c4)c(=O)c23)cc(F)c1O` [Example 57, 3-cyano-5-fluoro-4-hydroxy-N-(4-oxo-3-(3-(trifluoromethyl)benzyl)-3,4-dihydroquinazolin-5-yl)benzamide]: at most 100 nM; for `O=C(Nc1cccc2ncn(Cc3ccccc3F)c(=O)c12)c1cc(Cl)c(O)c(C(F)(F)F)c1` [Example 41, 3-chloro-N-(3-(2-fluorobenzyl)-4-oxo-3,4-dihydroquinazolin-5-yl)-4-hydroxy-5-(trifluoromethyl)benzamide]: 100 to 1000 nM. On HSD17B13 enzyme [1], `N#Cc1cc(C(=O)Nc2cccc3ncn(Cc4ccc(OC(F)(F)F)cc4)c(=O)c23)cc(Cl)c1O` [Example 58, 3-chloro-5-cyano-4-hydroxy-N-(4-oxo-3-(4-(trifluoromethoxy)benzyl)-3,4-dihydroquinazolin-5-yl)benzamide] returned an IC50 of 100 to 1000 nM. Still for that read-out and setting: then `O=C(Nc1cccc2ncn(Cc3ccc(C(F)(F)F)cc3)c(=O)c12)c1cc(Cl)c(O)c(C(F)(F)F)c1` [Example 46, 3-chloro-4-hydroxy-N-(4-oxo-3-(4-(trifluoromethyl)benzyl)-3,4-dihydroquinazolin-5-yl)-5-(trifluoromethyl)benzamide], with 100 to 1000 nM; and `N#Cc1cc(C(=O)Nc2cccc3ncn(Cc4cccc(OC(F)(F)F)c4)c(=O)c23)cc(F)c1O` [Example 56, 3-cyano-5-fluoro-4-hydroxy-N-(4-oxo-3-(3-(trifluoromethoxy)benzyl)-3,4-dihydroquinazolin-5-yl)benzamide], with 100 to 1000 nM; and `O=C(Nc1cccc2ncn(Cc3ccccc3F)c(=O)c12)c1cc(Cl)c(O)c(C(F)(F)F)n1` [Example 45, 4-chloro-N-(3-(2-fluorobenzyl)-4-oxo-3,4-dihydroquinazolin-5-yl)-5-hydroxy-6-(trifluoromethyl)picolinamide], with 100 to 1000 nM. The same measure, in the same setting: the same measure for `N#Cc1cc(C(=O)Nc2cccc3ncn(Cc4cc[nH]n4)c(=O)c23)cc(F)c1O` [Example 61, N-(3-((1H-pyrazol-3-yl)methyl)-4-oxo-3,4-dihydroquinazolin-5-yl)-3-cyano-5-fluoro-4-hydroxybenzamide]: 100 to 1000 nM; for `CC(C)(C)n1ccc(Cn2cnc3cccc(NC(=O)c4cc(F)c(O)c(C#N)c4)c3c2=O)n1` [Example 63, N-(3-((1-(tert-butyl)-1H-pyrazol-3-yl)methyl)-4-oxo-3,4-dihydroquinazolin-5-yl)-3-cyano-5-fluoro-4-hydroxybenzamide]: 100 to 1000 nM.

For the origin of these results see patent US20230286923A1 (INIPHARM, INC., priority 2020, published 2023).
